Experiments:
Type in all cases: cell-based
MOLM-13 cells = experiment: Cell viability assay (CELLTITER-GLO), MOLM-13 cells; details: Homo sapiens, MOLM-13, 72 h; Table 2; compound at 10 μM, 3 days; read-out: Effect on MOLM-13 cell viability (% DMSO)
Experimental: (§1) MOLM-13 cells, MV-4-11 cells, H23, and H358 cells were independently cultured in RPMI 1640 media supplemented with 10% fetal bovine serum, streptomycin and penicillin. The cells were plated in white walled 96-well plates at 4,000 cells/well. The cells were incubated in DMSO (control) or a compound for 3 days at 37° C. under 5% CO2. A CELLTITER-GLO® reagent (100 μL) was then added to each well. After a 10 min incubation with shaking, luminescence was measured using an ENVISION® multimode plate reader.
In Tables 1 and 2, each compound was tested at 10 μM; and in Table 3, each compound was tested at 1 μM. In Tables 1 to 3, the cell viability values as % DMSO are reported as “A,” “B,” “C,” or “D;” where “A” represents a % viability value of less than 10%; “B” represents a % viability value of no less than 10% and less than 25%; “C” represents a % viability value of no less than 25% and less than 50%; and “D” represents a % viability value of no less than 50%. Compound A is […]

H358 cells = experiment: Cell viability assay (CELLTITER-GLO), H358 cells; details: Table 4; 3 days
Experimental: as §1
In Tables 1 and 2, each compound was tested at 10 μM; and in Table 3, each compound was tested at 1 μM. In Tables 1 to 3, the cell viability values as % DMSO are reported as “A,” “B,” “C,” or “D;” where “A” represents a % viability value of less than 10%; “B” represents a % viability value of no less than 10% and less than 25%; “C” represents a % viability value of no less than 25% and less than 50%; and “D” represents a % viability value of no less than 50%. Compound A is
(§2) IC50 values are summarized in Table 4, where “A” represents an IC50 value of no greater than 1 μM, “B” represents an IC50 value of greater than 1 μM and no greater than 5 μM, “C” represents an IC50 value of greater than 5 μM and no greater than 10 μM, and “D” represents an IC50 value of greater than 10 μM.

H23 cells = experiment: Cell viability assay (CELLTITER-GLO), H23 cells; details: Table 4; 3 days
Experimental: as §1, §2

| Inhibition of H358 cells, IC50 (class) (H358 cells) | Compound | viability at 10 µM (MOLM-13 cells) | Inhibition of H23 cells, IC50 (class) (H23 cells) |
| --- | --- | --- | --- |
| B′ | CCC(=O)N1CCN(c2ncnc3c(Cl)c(-c4c(F)cccc4OCCCCCCCCN4CCC(c5cc(F)cc6c5CN(C5CCC(=O)NC5=O)C6=O)CC4)c(F)cc23)CC1 (stereo not shown) [Compound 20, 3-(4-(1-(8-(2-(8-Chloro-6-fluoro-4-(4-propionylpiperazin-1-yl)quinazolin-7-yl)-3-fluorophenoxy)octyl)piperidin-4-yl)-6-fluoro-1-oxoisoindolin-2-yl)piperidine-2,6-dione] | < 10% | B′ |
| B′ | C=CC(=O)N1CCN(c2ncnc3c(F)c(-c4c(F)cccc4OCCOCCOCCOCCNc4cccc5c4C(=O)N(C4CCC(=O)NC4=O)C5=O)c(Cl)cc23)CC1 (stereo not shown) [Compound 23, 4-((2-(2-(2-(2-(2-(4-(4-Acryloylpiperazin-1-yl)-6-chloro-8-fluoroquinazolin-7-yl)-3-fluorophenoxy)ethoxy)ethoxy)ethoxy)ethyl)amino)-2-(2,6-dioxopiperidin-3-yl)isoindoline-1,3-dione] | < 10% | B′ |
| B′ | C=CC(=O)N1CCN(c2ncnc3c(F)c(-c4c(F)cccc4OCCCCCCCNCc4ccc(OCc5scc6c5CN([C@H]5CCC(=O)NC5=O)C6=O)cc4)c(Cl)cc23)CC1 [Compound 24, (3S)-3-(1-((4-(((7-(2-(4-(4-Acryloylpiperazin-1-yl)-6-chloro-8-fluoroquinazolin-7-yl)-3-fluorophenoxy)heptyl)amino)methyl)phenoxy)methyl)-4-oxo-4H-thieno[3,4-c]pyrrol-5(6H)-yl)piperidine-2,6-dione] | < 10% | B′ |
| D′ | C=CC(=O)N1CCN(c2ncnc3c(F)c(-c4cc(OCCOCCOCCC(=O)NCCNc5cccc6c5CN(C5CCC(=O)NC5=O)C6=O)ccc4F)c(Cl)cc23)CC1 (stereo not shown) [Compound 38, 3-(2-(2-(3-(4-(4-Acryloylpiperazin-1-yl)-6-chloro-8-fluoroquinazolin-7-yl)-4-fluorophenoxy)ethoxy)ethoxy)-N-(2-((2-(2,6-dioxopiperidin-3-yl)-1-oxoisoindolin-4-yl)amino)ethyl)propanamide] | ≥ 50% | D′ |
| B′ | C=CC(=O)N1CC(N2Cc3ccc(-c4cc(O)cc5ccccc45)cc3N(CCOCCOCCOCCNc3ccc4c(c3)C(=O)N(C3CCC(=O)NC3=O)C4=O)C2=O)C1 (stereo not shown) [Compound 40, 5-((2-(2-(2-(2-(3-(1-Acryloylazetidin-3-yl)-7-(3-hydroxynaphthalen-1-yl)-2-oxo-3,4-dihydroquinazolin-1(2H)-yl)ethoxy)ethoxy)ethoxy)ethyl)amino)-2-(2,6-dioxopiperidin-3-yl)isoindoline-1,3-dione] | < 10% | B′ |
| B′ | O=C1CCC(N2Cc3c(cc(F)cc3C3CCN(CCCCCCCOc4cccc(F)c4-c4c(Cl)cc5c(N6CCN(C(=O)c7cnc[nH]7)CC6)ncnc5c4F)CC3)C2=O)C(=O)N1 (stereo not shown) [Compound 41, 3-(4-(1-(7-(2-(4-(4-(1H-Imidazole-5-carbonyl)piperazin-1-yl)-6-chloro-8-fluoroquinazolin-7-yl)-3-fluorophenoxy)heptyl)piperidin-4-yl)-6-fluoro-1-oxoisoindolin-2-yl)piperidine-2,6-dione] | < 10% | B′ |
| D′ | CCC(=O)N1CCN(c2ncnc3c(F)c(-c4c(F)cccc4OCCOCCOCCOCCNc4cccc5c4C(=O)N(C4CCC(=O)NC4=O)C5=O)c(Cl)cc23)CC1 (stereo not shown) [Compound 42, 4-((2-(2-(2-(2-(2-(6-Chloro-8-fluoro-4-(4-propionylpiperazin-1-yl)quinazolin-7-yl)-3-fluorophenoxy)ethoxy)ethoxy)ethoxy)ethyl)amino)-2-(2,6-dioxopiperidin-3-yl)isoindoline-1,3-dione] | ≥ 50% | D′ |
| C′ | O=C1CCC(N2Cc3c(cc(F)cc3C3CCN(CCCCCCCOc4cccc(F)c4-c4c(Cl)cc5c(N6CCN(C(=O)C7CCOCC7)CC6)ncnc5c4F)CC3)C2=O)C(=O)N1 (stereo not shown) [Compound 52, 3-(4-(1-(7-(2-(6-Chloro-8-fluoro-4-(4-(tetrahydro-2H-pyran-4-carbonyl)piperazin-1-yl)quinazolin-7-yl)-3-fluorophenoxy)heptyl)piperidin-4-yl)-6-fluoro-1-oxoisoindolin-2-yl)piperidine-2,6-dione] | – | B′ |
| B′ | O=C1CCC(N2Cc3c(cc(F)cc3C3CCN(CCCCCCCOc4cccc(F)c4-c4c(Cl)cc5c(N6CCN(C(=O)CC7CC7)CC6)ncnc5c4F)CC3)C2=O)C(=O)N1 (stereo not shown) [Compound 53, 3-(4-(1-(7-(2-(6-Chloro-4-(4-(2-cyclopropylacetyl)piperazin-1-yl)-8-fluoroquinazolin-7-yl)-3-fluorophenoxy)heptyl)piperidin-4-yl)-6-fluoro-1-oxoisoindolin-2-yl)piperidine-2,6-dione] | – | B′ |
| C′ | O=C1CCC(N2Cc3c(cc(F)cc3C3CCN(CCCCCCCOc4cccc(F)c4-c4c(Cl)cc5c(N6CCN(C(=O)C7CCOC7)CC6)ncnc5c4F)CC3)C2=O)C(=O)N1 (stereo not shown) [Compound 54, 3-(4-(1-(7-(2-(6-Chloro-8-fluoro-4-(4-(tetrahydrofuran-3-carbonyl)piperazin-1-yl)quinazolin-7-yl)-3-fluorophenoxy)heptyl)piperidin-4-yl)-6-fluoro-1-oxoisoindolin-2-yl)piperidine-2,6-dione] | – | B′ |
| D′ | CCC(=O)N1CCN(c2ncnc3c(F)c(-c4c(F)cccc4OCCCCCN4CCC(c5cc(F)cc6c5CN(C5CCC(=O)NC5=O)C6=O)CC4)c(Cl)cc23)CC1 (stereo not shown) [Compound 60, 3-(4-(1-(5-(2-(6-Chloro-8-fluoro-4-(4-propionylpiperazin-1-yl)quinazolin-7-yl)-3-fluorophenoxy)pentyl)piperidin-4-yl)-6-fluoro-1-oxoisoindolin-2-yl)piperidine-2,6-dione] | – | C′ |
| B′ | CCC(=O)N1CCN(c2nc(NCCC(=O)N(C)C)nc3c(F)c(-c4c(F)cccc4OCCCCCCCN4CCC(c5cc(F)cc6c5CN(C5CCC(=O)NC5=O)C6=O)CC4)c(Cl)cc23)CC1 (stereo not shown) [Compound 86, 3-((6-Chloro-7-(2-((7-(4-(2-(2,6-dioxopiperidin-3-yl)-6-fluoro-1-oxoisoindolin-4-yl)piperidin-1-yl)heptyl)oxy)-6-fluorophenyl)-8-fluoro-4-(4-propionylpiperazin-1-yl)quinazolin-2-yl)amino)-N,N-dimethylpropanamide] | – | B′ |
| A′ | C=C(Cl)C(=O)N1CCN(c2ncnc3c(F)c(-c4c(F)cccc4OCCCCCCCN4CCCC(c5cc(F)cc6c5CN(C5CCC(=O)NC5=O)C6=O)C4)c(Cl)cc23)CC1 (stereo not shown) [Compound 106, 3-(4-(1-(7-(2-(6-Chloro-4-(4-(2-chloroacryloyl)piperazin-1-yl)-8-fluoroquinazolin-7-yl)-3-fluorophenoxy)heptyl)piperidin-3-yl)-6-fluoro-1-oxoisoindolin-2-yl)piperidine-2,6-dione] | – | A′ |
| A′ | C=C(Cl)C(=O)N1CCN(c2ncnc3c(F)c(-c4c(F)cccc4OCCc4ccc(CCN5CCC(c6cc(F)cc7c6CN(C6CCC(=O)NC6=O)C7=O)CC5)cc4)c(Cl)cc23)C[C@H]1CC#N (stereo partly drawn) [Compound 131, 2-((2R)-4-(6-Chloro-7-(2-(4-(2-(4-(2-(2,6-dioxopiperidin-3-yl)-6-fluoro-1-oxoisoindolin-4-yl)piperidin-1-yl)ethyl)phenethoxy)-6-fluorophenyl)-8-fluoroquinazolin-4-yl)-1-(2-chloroacryloyl)piperazin-2-yl)acetonitrile] | – | A′ |
| B′ | C=C(Cl)C(=O)N1CCN(c2nc(OC[C@@H]3CCCN3C)nc3c(F)c(-c4c(F)cccc4OCCCCCCCN4CCC(c5cc6c(cc5F)C(=O)N(C5CCC(=O)NC5=O)C6)CC4)c(Cl)cc23)C[C@H]1CC#N (stereo partly drawn) [Compound 132, 2-((2R)-4-(6-Chloro-7-(2-((7-(4-(2-(2,6-dioxopiperidin-3-yl)-6-fluoro-1-oxoisoindolin-5-yl)piperidin-1-yl)heptyl)oxy)-6-fluorophenyl)-8-fluoro-2-(((S)-1-methylpyrrolidin-2-yl)methoxy)quinazolin-4-yl)-1-(2-chloroacryloyl)piperazin-2-yl)acetonitrile] | – | B′ |

Source: patent US12630547B2, “RAS protein degraders, pharmaceutical compositions thereof, and their therapeutic applications” (BioTheryX, Inc., priority 2019, dated 2026)
